The test system of this assay is hippocampal tissue slice. Briefly: Excitatory postsynaptic potential of hippocampal tissue slices on a multiple-electrode probe; NMDA-induced long-term depression. The assay is classed as cell-based, rat. As to conditions: substance 1 nM perfused for 30 minutes before NMDA (30 μM, 3 minutes). From the text: Now, an example of a specific embodiment for the above-mentioned evaluating method 1 will be illustrated. First, the preparation of a cell group and a setting method of experimental conditions are explained below. With regard to the cell group, a tissue slice which was a transversely cut in a hippocampal region along a long-axis which was cut out from a brain tissue of an adult rat using a vibratome (DSK ZERO 1; manufactured by Dosaka EM K.K.) was used. Thickness of the hippocampal tissue slice was made 300 μm.
For the measurement of an electrophysiological response of this hippocampal tissue slice, a multiple-electrode measuring apparatus MED 64 System (Alpha Med) was used. With regard to an electrode arranged in the hippocampal tissue slice, a multiple-electrode probe MED-P530A (Alpha Med) attached to this multiple-electrode measuring apparatus was used. On a substrate of this multiple-electrode probe, plural electrodes are previously arranged regularly with a predetermined interval (300 μm).
One sheet of the hippocampal tissue slice cut out by a vibratome was allowed to stand in a chamber placed on a substrate of one multiple-electrode probe and, at the same time, an artificial cerebrospinal fluid sufficiently saturated with a mixed gas of oxygen and carbon dioxide (95% oxygen gas and 5% carbon dioxide gas) was filled in the chamber whereby the hippocampal tissue slice was soaked in the artificial cerebrospinal fluid followed by being allowed to stand at room temperature for 1 hour or longer. With regard to the artificial cerebrospinal fluid, an aqueous solution containing 124 mM of NaCl, 1.25 mM of NaH2PO4.2H2O, 5 mM of KCl, 2 mM of MgSO4.7H2O, 2 mM of CaCl2, 22 mM of NaHCO3 and 10 mM of […] was used.
In this artificial cerebrospinal fluid, the hippocampal tissue slice was placed on the multiple-electrode probe so that the cells included in each of three regions comprising one dentate gyrus and two cornu ammonis regions near the surface of the hippocampal tissue slice were brought into contact with plural electrodes on the multiple-electrode probe. Thus, a stimulating electrode which applies electrical stimulation to presynaptic fiber projecting to the nerve cell group and a recording electrode which records excitatory postsynaptic potential induced by the electrical stimulation in the nerve cell group as accumulated potential are arranged for each of pyramidal cells of cornu ammonis CA1 field, pyramidal cells of cornu ammonis CA3 field and granular cells of dentate gyrus.
Electrical stimulation to a hippocampal tissue slice by a stimulating electrode was carried out by repeated application of electrical stimulation at intervals of 15 seconds in the order of a stimulating electrode arranged in a cornu ammonis CA1 field, a stimulating electrode arranged in a cornu ammonis CA3 field, a stimulating electrode arranges in a dentate gyrus and, again, a stimulating electrode arranged in a cornu ammonis CA1 field. The excitatory postsynaptic potential induced by the electrical stimulation was recorded for about 30 minutes and, after confirming that the accumulated potential was stabilized, strength of electrical stimulation applied from the stimulating electrode was set in each of the following steps. […] When the strength of the measured accumulated potential was saturated (or became constant), the strength of the saturated accumulated potential was defined as maximum (100%) and strength of electrical stimulation to be applied to the hippocampal tissue slice from the stimulating electrode was set so as to make the value 50% of the above maximum value.
In this Example, DES was used as an object substance, estradiol, which is one example of estrogen, was used as an agonist to hormone receptor and NMDA was used as a stimulant. […]

As for `CC/C(=C(/CC)c1ccc(O)cc1)c1ccc(O)cc1` [DES, diethylstilbestrol], the “excitatory postsynaptic potential 50 minutes after administration of NMDA, relative to that before administration of NMDA” value is listed as “about 40%” (cornu ammonis CA1 field), “about 75%” (cornu ammonis CA3 field) and “about 68%” (dentate gyrus).
For `C[C@]12CC[C@@H]3c4ccc(O)cc4CC[C@H]3[C@@H]1CC[C@@H]2O` [estradiol] the same measures were “about 40%”, “about 55%” and “about 80%”.

The record behind these values is patent publication US20060088815A1, “Method for evaluation of endocrine disruptive action” (THE UNIVERSITY OF TOKYO, priority 2004, published 2006).
